One assay has as its target T1, canine TRPM8 (Canis lupus familiaris, UniProt Q1A7N1).
T1 construct: expressed in transfected cells
Briefly: In Vitro Canine TRPM8 Functional Assay (Ca2+ fluorescence, icilin activation). Type of assay: cell-based. The settings on record: for inhibition at 0.2 µM: HEK293, 0.2 μM compound; for inhibition at 0.2 µM / inhibition at 0.5 µM / % Inh @ 0.5 μM / % Inh @ 0.2 μM: canine TRPM8 HEK293, icilin; for inhibition at 0.5 µM: HEK293, 0.5 μM compound; for IC50: HEK293 cells stably expressing canine TRPM8, icilin activation, Ca2+ fluorescence; for % Inh @ 0.5 μM: 0.5 μM compound; for % Inh @ 0.2 μM: 0.2 μM compound. The method, boiled down:
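Antagonism read as inhibition of the intracellular Ca2+ rise evoked by icilin (~EC80), measured by FLIPR or FDSS. Stable canine TRPM8 HEK293 line, Calcium 3 dye; 5 min compound preincubation. Normalised, basal-corrected peak fluorescence from quadruplicates fitted to sigmoidal curves.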

Assay [1] deals with icilin-induced “wet-dog” shakes. Briefly: Reversal of Icilin-Induced Behaviors in Rats. Type of assay: in vivo. Particulars: percent inhibition (reversal) of wet-dog shakes, rat, 30 mg/kg P.O., 20′ post-icilin. The method, then: (§1) Similar shaking or jumping behavior was also evident in mice, rabbits, cats, dogs and monkeys. In humans, icilin produced a sensation of coolness on contact with mucous membranes, cold prickling when 0.1 mg was dropped on the tongue and coldness in the mouth, pharynx and chest lasting 30-60 minutes when 5-10 mg was ingested orally (Wei E T, Seid D A, J Pharm Pharmacol. 1983, 35, 110). The inhibition or reversal of icilin-induced shaking behaviors in rodents provides evidence for the utility of TRPM8 antagonists of the formula (I) in treating or preventing a disease, syndrome, disorder or condition in a subject in which the disease, syndrome, disorder or condition is affected by the modulation of TRPM8 receptors.
Male Sprague Dawley rats (225-450 g, Charles River Labs, n=4-6/treatment) were used to evaluate the ability of selected compounds of the formula (I) to reverse icilin-induced “wet-dog” shakes. Icilin was administered in PEG-400 or 10% solutol/H2O, at 1.0 or 3.0 mg/kg, i.p. and spontaneous “wet-dog” shakes (WDS) were counted 10-20 minutes post-icilin. […] Results are presented as a percent inhibition of shakes, which was calculated as [1−(test compound WDS count/vehicle WDS count)]×100.

For assay [2] the test system is unchanged. Briefly: Inhibition of Icilin-Induced “Wet-Dog” Shakes in Rats. Type of assay: in vivo. The settings on record: percent inhibition of wet-dog shakes; rat; 30 mg/kg p.o., 10% solutol, 2 h pre-icilin. The method, then:
as §1
Male Sprague Dawley rats ([…], Charles River Labs, n=6-9/treatment) were used to evaluate the ability of selected compounds of the formula (I) to block icilin-induced “wet-dog” shakes (WDS). […] Icilin was administered in PEG-400 or 10% solutol/H2O, at 1.0 or 3.0 mg/kg, i.p. and spontaneous “wet-dog” shakes were counted 10-20 minutes post-icilin. Results are presented as a percent inhibition of shakes, which was calculated as [1−(test compound WDS count/vehicle WDS count)]×100.

Where “and” joins values, the source holds several entries; their conditions need not be identical. Equal values may be shown once.

What is called inhibition is the drop in the measured response relative to a control, in per cent. For orientation: IC50 means the concentration that gives 50% inhibition.

T1 sequence (Q1A7N1 1-1104): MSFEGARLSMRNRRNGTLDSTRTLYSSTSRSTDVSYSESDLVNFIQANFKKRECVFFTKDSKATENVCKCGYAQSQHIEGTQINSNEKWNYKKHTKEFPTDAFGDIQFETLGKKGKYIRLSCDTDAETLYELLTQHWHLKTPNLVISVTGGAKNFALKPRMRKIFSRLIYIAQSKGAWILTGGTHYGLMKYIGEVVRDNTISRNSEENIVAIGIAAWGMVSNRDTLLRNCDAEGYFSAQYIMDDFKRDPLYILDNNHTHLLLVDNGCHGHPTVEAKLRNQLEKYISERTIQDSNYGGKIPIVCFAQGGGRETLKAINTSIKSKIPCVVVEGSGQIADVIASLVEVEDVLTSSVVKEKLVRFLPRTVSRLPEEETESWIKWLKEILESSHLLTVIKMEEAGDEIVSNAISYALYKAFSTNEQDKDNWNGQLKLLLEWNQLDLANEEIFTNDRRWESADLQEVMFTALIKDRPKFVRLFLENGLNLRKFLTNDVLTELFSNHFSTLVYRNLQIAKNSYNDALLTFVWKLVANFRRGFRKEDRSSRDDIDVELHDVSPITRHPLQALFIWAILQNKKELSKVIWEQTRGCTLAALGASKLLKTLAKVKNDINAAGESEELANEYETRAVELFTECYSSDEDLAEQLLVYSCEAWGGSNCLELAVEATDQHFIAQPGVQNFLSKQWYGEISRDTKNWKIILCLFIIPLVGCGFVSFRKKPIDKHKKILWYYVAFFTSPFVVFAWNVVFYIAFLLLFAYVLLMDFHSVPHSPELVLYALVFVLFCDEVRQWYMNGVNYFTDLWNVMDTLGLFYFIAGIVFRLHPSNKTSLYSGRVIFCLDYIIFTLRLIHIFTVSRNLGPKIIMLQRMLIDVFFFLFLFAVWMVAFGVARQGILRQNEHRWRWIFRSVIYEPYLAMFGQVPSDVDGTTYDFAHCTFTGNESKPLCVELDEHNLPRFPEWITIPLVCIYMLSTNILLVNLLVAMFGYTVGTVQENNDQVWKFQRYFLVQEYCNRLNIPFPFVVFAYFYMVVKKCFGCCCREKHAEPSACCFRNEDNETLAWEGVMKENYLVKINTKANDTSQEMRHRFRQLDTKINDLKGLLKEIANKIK

On to `O=C(C(Nc1ccccc1F)c1ccc(C(F)(F)F)cc1)N1CCC[C@H]1c1ccccc1F` (stereo partly drawn) [Cpd 150, 2-(2-Fluoro-phenylamino)-1-[(2S)-2-(2-fluoro-phenyl)-pyrrolidin-1-yl]-2-(4-trifluoromethyl-phenyl)-ethanone], for which, on canine TRPM8, the inhibition at 0.2 µM came to 89%; the inhibition at 0.5 µM worked out at 100%; the IC50 was 0.012 µM and 0.004 µM. Also, in assay [1], the “% Inh” value is listed as 63% ± 15%.

In the case of `O=C(C(Nc1ccccc1F)c1ccc(C(F)(F)F)cc1)N1CCCC1c1cccc(F)c1` (stereo not drawn) [Cpd 134], at canine TRPM8, the “% Inh @ 0.5 μM” value is 98%; the IC50 was 0.014 µM and 0.0087 µM. In assay [1], the “% Inh” value is 75% ± 11%.

Consider `O=C(C(Nc1ccccc1F)c1ccc(Cl)cc1)N1CCCC1c1ccccc1F` (single isomer, unassigned) [Cpd 158], for which, on canine TRPM8, the “% Inh @ 0.5 μM” value was determined as 98% and the IC50 is 0.005 µM. Also, the “% Inh” value in assay [1] was 86% ± 7%.

As to `O=C(C(Nc1ccccc1F)c1ccc(C(F)(F)F)cc1)N1CCCC1c1ccccc1` (single isomer, unassigned) [Cpd 128], at canine TRPM8, the inhibition at 0.5 µM is 100% and the IC50 came to 0.0046 µM. The “% Inh” value in assay [1] (30 mg/kg) was 56% ± 19%.

For `O=C(C(Nc1ccccc1F)c1ccc(C(F)(F)F)cc1)N1CCCC1c1ccccc1` (single isomer, unassigned) [Cpd 129], at canine TRPM8, the “% Inh @ 0.5 μM” value is on record as 101% and half-maximal inhibition (IC50) required 0.043 µM. In assay [1] (30 mg/kg), the “% Inh” value is reported as 50% ± 21%.

With `O=C(C(Nc1ccccc1F)c1ccc(C(F)(F)F)cc1)N1CCCC1c1ccccc1Cl` (single isomer, unassigned) [Cpd 155], at canine TRPM8, the inhibition at 0.5 µM worked out at 99% and the IC50 amounted to 0.017 µM. The “% Inh” value in assay [1] is listed as 79% ± 13%.

As to `O=C(C(Nc1ccccc1F)c1ccc(C(F)(F)F)cc1)N1CCCC1c1ccccc1F` (single isomer, unassigned) [Cpd 149], at canine TRPM8, the inhibition at 0.2 µM was found to be 83%; the inhibition at 0.5 µM was 101%; the concentration for half-maximal inhibition (IC50) was 0.045 µM and 0.074 µM. Also, in assay [1] (30 mg/kg), the “% Inh” value is listed as 61% ± 15%.

With `O=C(C(Nc1ccccc1F)c1ccc(C(F)(F)F)cc1)N1CCCC1c1ccccc1F` (single isomer, unassigned) [Cpd 151], at canine TRPM8, the “% Inh @ 0.2 μM” value is on record as 103%; the “% Inh @ 0.5 μM” value stood at 100.72%; the IC50 was 0.0072 µM and 0.005 µM. Moreover, the “% Inh” value in assay [2] stood at 100%. In addition, the “% Inh” value in assay [1] (30 mg/kg) is recorded as 99% ± 1%.

`O=C(C(Nc1ccccc1F)c1cnc2ccccc2c1)N1CCCC1c1ccccc1Cl` (stereo not drawn) [Cpd 373]: inhibition at canine TRPM8 was half-maximal at 0.006 µM (IC50).

On to `COC(=O)C1CCC(c2ccccc2)N1C(=O)C(Nc1ccccc1F)c1ccc(Br)cc1` (single isomer, unassigned) [Cpd 209], for which, at canine TRPM8, the “% Inh @ 0.2 μM” value is listed as 94% and the IC50 is 0.099 µM.

Take `COC(=O)c1ccc(C2CCCN2C(=O)C(Nc2ccccc2F)c2ccc3c(c2)CCO3)cc1` (stereo not drawn) [Cpd 351]: at canine TRPM8, the inhibition at 0.2 µM amounted to 83% and the half-maximal inhibitory concentration (IC50) came out at 0.092 µM.

With `O=C(C(Nc1ccccc1F)c1ccc(Cl)cc1)N1CCC[C@H]1c1ccccc1F` (mixture of isomers) [Cpd 156], on canine TRPM8, the inhibition at 0.5 µM was 92% and the IC50 stood at 0.009 µM.

With `O=C(C(Nc1ccccc1F)c1cc2ccccc2s1)N1CCCC1c1ccccn1` (stereo not drawn) [Cpd 321], at canine TRPM8, the inhibition at 0.2 µM worked out at 94% and the IC50 is 0.008 µM.

Turning to `O=C(C(Nc1ccccc1F)c1ccc(C(F)(F)F)cc1)N1CCCC1c1ccccn1` (stereo not drawn) [Cpd 202], at canine TRPM8, the inhibition at 0.2 µM worked out at 100% and the IC50 stood at 0.025 µM.

The record behind these values is patent US8143259B2, “Cold menthol receptor antagonists” (Janssen Pharmaceutica, NV, priority 2008, dated 2012).
